Source: ChEMBL document CHEMBL3779884, “Anti-Staphylococcal Biofilm Effects of Human Cathelicidin Peptides” (ACS Med Chem Lett, 2016)
≈ marks a conversion by molar mass, not a printed value. Calls of active or inactive are those of the source. The rule behind the calls is not given here. Where a SMILES comes first, the peptide text is derived from it. [ ]: non-standard residue; d: D form. Bip = N[C@@H](Cc1ccc(-c2ccccc2)cc1)C(=O)O

Columns and labels:
Staphylococcus aureus [1] = assay: Antibacterial activity against Staphylococcus aureus clinical isolate UAMS-1 incubated for 20 hrs by microplate reader analysis; assay type: functional; conditions: isolate UAMS-1, 20 h
Staphylococcus aureus [2] = assay: Antibacterial activity against Staphylococcus aureus Newman incubated for 20 hrs by microplate reader analysis; assay type: functional
Staphylococcus aureus [3] = assay: Antibiofilm activity against Staphylococcus aureus clinical isolate USA300 assessed as inhibition of bacterial attachment at 25 uM incubated for 1 hr by XTT/PMS assay; assay type: functional, organism-based
Staphylococcus aureus [4] = assay: Inhibition of biofilm formation in Staphylococcus aureus clinical isolate USA300 at 3.1 to 25 uM incubated for 24 hrs by XTT/PMS assay; assay type: functional, organism-based
Staphylococcus aureus [5] = assay: Antibiofilm activity against Staphylococcus aureus clinical isolate USA300 assessed as dead cells at 3.1 to 25 uM incubated for 24 hrs by SYTO 9/propidium iodide staining based confocal laser scanning microscopy; assay type: functional, organism-based
Staphylococcus aureus [6] = assay: Antibiofilm activity against Staphylococcus aureus clinical isolate USA300 assessed as 24 hr preformed biofilm disruption at 3.1 to 25 uM incubated for 24 hrs by XTT assay; assay type: functional, organism-based
Staphylococcus aureus [7] = assay: Antibiofilm activity against Staphylococcus aureus clinical isolate USA200 assessed as 24 hr preformed biofilm disruption at 3.1 to 25 uM incubated for 24 hrs by XTT assay; assay type: functional, organism-based
Staphylococcus aureus [8] = assay: Antibiofilm activity against Staphylococcus aureus clinical isolate USA400 assessed as 24 hr preformed biofilm disruption at 3.1 to 25 uM incubated for 24 hrs by XTT assay; assay type: functional, organism-based
Staphylococcus aureus [9] = assay: Antibiofilm activity against Staphylococcus aureus Mu50 assessed as 24 hr preformed biofilm disruption at 3.1 to 25 uM incubated for 24 hrs by XTT assay; assay type: functional, organism-based
Staphylococcus aureus [10] = assay: Antibiofilm activity against Staphylococcus aureus Newman assessed as 24 hr preformed biofilm disruption at 3.1 to 25 uM incubated for 24 hrs by XTT assay; assay type: functional, organism-based
Staphylococcus aureus [11] = assay: Antibiofilm activity against Staphylococcus aureus clinical isolate UAMS-1 assessed as 24 hr preformed biofilm disruption at 3.1 to 25 uM incubated for 24 hrs by XTT assay; assay type: functional, organism-based
Staphylococcus aureus [12] = assay: Antibiofilm activity against Staphylococcus aureus clinical isolate USA300 assessed as disruption of 72 hr-preformed biofilm at 6.2 uM incubated for 24 hrs by XTT assay in presence of 1.6 uM vancomycin; assay type: functional, organism-based
Staphylococcus aureus [13] = assay: Antibiofilm activity against Staphylococcus aureus clinical isolate USA300 assessed as disruption of 72 hr-preformed biofilm at 6.2 uM incubated for 24 hrs by XTT assay in presence of 1.6 uM daptomycin; assay type: functional, organism-based
[14] = Hemolytic activity against human RBC after 1 hr by microplate reader analysis; assay type: ADME, cell-based, Erythrocyte; conditions: red blood cells
HaCaT = assay: Cytotoxic activity against human HaCaT cells assessed as reduction in cell viability at 20 to 100 uM incubated for 1 hr by MTS assay; assay type: cell-based
Staphylococcus aureus [15] = assay: Antibacterial activity against Staphylococcus aureus clinical isolate USA200 incubated for 20 hrs by microplate reader analysis; assay type: functional; conditions: isolate USA200, 20 h
Staphylococcus aureus [16] = assay: Antibacterial activity against Staphylococcus aureus clinical isolate USA300 incubated for 20 hrs by microplate reader analysis; assay type: functional; conditions: isolate USA300, 20 h
Staphylococcus aureus [17] = assay: Antibacterial activity against Staphylococcus aureus clinical isolate USA400 incubated for 20 hrs by microplate reader analysis; assay type: functional; conditions: isolate USA400, 20 h
Staphylococcus aureus [18] = assay: Antibacterial activity against Staphylococcus aureus Mu50 incubated for 20 hrs by microplate reader analysis; assay type: functional; conditions: Mu50, 20 h
Staphylococcus aureus [19] = assay: Antibiofilm activity against Staphylococcus aureus clinical isolate USA300 assessed as 24 hr preformed biofilm disruption at 12.5 to 25 uM incubated for 24 hrs by XTT assay; assay type: functional, organism-based
Staphylococcus aureus [20] = assay: Antibiofilm activity against Staphylococcus aureus clinical isolate USA200 assessed as 24 hr preformed biofilm disruption at 12.5 to 25 uM incubated for 24 hrs by XTT assay; assay type: functional, organism-based
Staphylococcus aureus [21] = assay: Antibiofilm activity against Staphylococcus aureus clinical isolate USA400 assessed as 24 hr preformed biofilm disruption at 12.5 to 25 uM incubated for 24 hrs by XTT assay; assay type: functional, organism-based
Staphylococcus aureus [22] = assay: Antibiofilm activity against Staphylococcus aureus Mu50 assessed as 24 hr preformed biofilm disruption at 12.5 to 25 uM incubated for 24 hrs by XTT assay; assay type: functional, organism-based
Staphylococcus aureus [23] = assay: Antibiofilm activity against Staphylococcus aureus Newman assessed as 24 hr preformed biofilm disruption at 12.5 to 25 uM incubated for 24 hrs by XTT assay; assay type: functional, organism-based
Staphylococcus aureus [24] = assay: Antibiofilm activity against Staphylococcus aureus JE2 assessed as inhibition of bacterial attachment at 3.1 to 25 uM incubated for 24 hrs by XTT/PMS assay; assay type: functional, organism-based
Staphylococcus aureus [25] = assay: Antibiofilm activity against Staphylococcus aureus JE2 assessed as 24 hr preformed biofilm disruption at 3.1 to 25 uM incubated for 24 hrs by XTT assay; assay type: functional, organism-based
Staphylococcus aureus [26] = assay: Antibiofilm activity against Staphylococcus aureus harboring fnbA mutant assessed as inhibition of bacterial attachment at 3.1 to 25 uM incubated for 24 hrs by XTT/PMS assay; assay type: functional, organism-based
Staphylococcus aureus [27] = assay: Antibiofilm activity against Staphylococcus aureus harboring fnbA mutant assessed as 24 hr preformed biofilm disruption at 3.1 to 25 uM incubated for 24 hrs by XTT assay; assay type: functional, organism-based
Staphylococcus aureus [28] = assay: Antibiofilm activity against Staphylococcus aureus harboring […] mutant assessed as inhibition of bacterial attachment at 3.1 to 25 uM incubated for 24 hrs by XTT/PMS assay; assay type: functional, organism-based
Staphylococcus aureus [29] = assay: Antibiofilm activity against Staphylococcus aureus harboring […] mutant assessed as 24 hr preformed biofilm disruption at 3.1 to 25 uM incubated for 24 hrs by XTT assay; assay type: functional, organism-based
Staphylococcus aureus [30] = assay: Antibiofilm activity against Staphylococcus aureus harboring sasC mutant assessed as inhibition of bacterial attachment at 3.1 to 25 uM incubated for 24 hrs by XTT/PMS assay; assay type: functional, organism-based
Staphylococcus aureus [31] = assay: Antibiofilm activity against Staphylococcus aureus harboring sasC mutant assessed as 24 hr preformed biofilm disruption at 3.1 to 25 uM incubated for 24 hrs by XTT assay; assay type: functional, organism-based
Staphylococcus aureus [32] = assay: Antibiofilm activity against Staphylococcus aureus clinical isolate UAMS-1 assessed as 24 hr preformed biofilm disruption at 12.5 to 25 uM incubated for 24 hrs by XTT assay; assay type: functional, organism-based
Staphylococcus aureus [33] = assay: Antibiofilm activity against Staphylococcus aureus clinical isolate USA300 assessed as inhibition of bacterial attachment at 3.1 to 25 uM incubated for 1 hr by XTT/PMS assay; assay type: functional, organism-based
Staphylococcus aureus [34] = assay: Inhibition of biofilm formation in Staphylococcus aureus clinical isolate USA300 at 3.1 uM incubated for 24 hrs by XTT/PMS assay relative to control; assay type: functional; conditions: isolate USA300, 24 h
Staphylococcus aureus [35] = assay: Inhibition of biofilm formation in Staphylococcus aureus clinical isolate USA300 at 6.2 to 25 uM incubated for 24 hrs by XTT/PMS assay; assay type: functional, organism-based

| Structure (SMILES) | MIC (Staphylococcus aureus [1]) [µM] | MIC (Staphylococcus aureus [2]) [µM] | inhibition (Staphylococcus aureus [3]) | inhibition (Staphylococcus aureus [4]) | Activity (Staphylococcus aureus [5]) | Activity (Staphylococcus aureus [6]) | Activity (Staphylococcus aureus [7]) | Activity (Staphylococcus aureus [8]) | Activity (Staphylococcus aureus [9]) | Activity (Staphylococcus aureus [10]) | Activity (Staphylococcus aureus [11]) | Activity (Staphylococcus aureus [12]) | Activity (Staphylococcus aureus [13]) | HC50 at 1 h [14] [µM] | Activity (HaCaT) | MIC (Staphylococcus aureus [15]) [µM] | MIC (Staphylococcus aureus [16]) [µM] | MIC (Staphylococcus aureus [17]) [µM] | MIC (Staphylococcus aureus [18]) [µM] | other results |
| --- | --- | --- | --- | --- | --- | --- | --- | --- | --- | --- | --- | --- | --- | --- | --- | --- | --- | --- | --- | --- |
| CC[C@H](C)[C@H](NC(=O)[C@H](CCCNC(=N)N)NC(=O)[C@H](CCC(N)=O)NC(=O)[C@@H](NC(=O)[C@@H](NC(=O)[C@H](CCCNC(=N)N)NC(=O)[C@H](CCCCN)NC(=O)[C@H](Cc1ccccc1)NC(=O)CN)[C@@H](C)CC)C(C)C)C(=O)N[C@@H](CCCCN)C(=O)N[C@@H](CC(=O)O)C(=O)N[C@@H](Cc1ccccc1)C(=O)N[C@@H](CC(C)C)C(=O)N[C@@H](CCCNC(=N)N)C(=O)N[C@@H](CC(N)=O)C(=O)N[C@@H](CC(C)C)C(=O)N[C@H](C(=O)O)C(C)C (H-GFKRIVQRIKDFLRNLV-OH) | 3.1 (≈ 6.52 µg/mL) | 1.56 (≈ 3.28 µg/mL) | Active | Active | Active | Active | Active | Active | Active | Active | inactive | Active | Active | 120 | Non-toxic | 1.56 (≈ 3.28 µg/mL) | 1.56 (≈ 3.28 µg/mL) | 1.56 (≈ 3.28 µg/mL) | 1.56 (≈ 3.28 µg/mL) | – |
| CC(C)C[C@H](NC(=O)[C@H](Cc1ccc(-c2ccccc2)cc1)NC(=O)[C@H](CC(=O)O)NC(=O)[C@H](CCCCN)NC(=O)[C@H](CC(C)C)NC(=O)[C@H](CCCNC(=N)N)NC(=O)[C@H](CCC(N)=O)NC(=O)[C@@H](NC(=O)[C@H](CC(C)C)NC(=O)[C@H](CCCNC(=N)N)NC(=O)[C@H](CCCCN)NC(=O)[C@H](Cc1ccc(-c2ccccc2)cc1)NC(=O)CN)C(C)C)C(=O)N[C@@H](CCCNC(=N)N)C(=O)N[C@@H](CC(N)=O)C(=O)N[C@@H](CC(C)C)C(=O)N[C@H](C(N)=O)C(C)C (H-G[Bip]KRLVQRLKD[Bip]LRNLV-NH2) | 3.1 (≈ 6.99 µg/mL) | 3.1 (≈ 6.99 µg/mL) | Active | Active | Active | – | – | – | – | – | – | Active | Active | 120 | Non-toxic | 3.1 (≈ 6.99 µg/mL) | 3.1 (≈ 6.99 µg/mL) | 3.1 (≈ 6.99 µg/mL) | 3.1 (≈ 6.99 µg/mL) | Activity (Staphylococcus aureus [19]): Active; Activity (Staphylococcus aureus [20]): Active; Activity (Staphylococcus aureus [21]): Active; Activity (Staphylococcus aureus [22]): Active; Activity (Staphylococcus aureus [23]): Active; inhibition (Staphylococcus aureus [24]): Active; Activity (Staphylococcus aureus [25]): Active; inhibition (Staphylococcus aureus [26]): Active; Activity (Staphylococcus aureus [27]): Active; inhibition (Staphylococcus aureus [28]): Active; Activity (Staphylococcus aureus [29]): Active; inhibition (Staphylococcus aureus [30]): Active; Activity (Staphylococcus aureus [31]): Active; Activity (Staphylococcus aureus [32]): Active |
| CC[C@H](C)[C@H](NC(=O)[C@H](CCCNC(=N)N)NC(=O)[C@H](CCC(N)=O)NC(=O)[C@@H](NC(=O)[C@@H](NC(=O)[C@@H](N)CCCNC(=N)N)[C@@H](C)CC)C(C)C)C(=O)N[C@@H](CCCCN)C(=O)N[C@@H](CC(=O)O)C(=O)N[C@@H](Cc1ccccc1)C(=O)N[C@@H](CC(C)C)C(=O)O (H-RIVQRIKDFL-OH) | > 50 | > 50 | Active | inactive | – | inactive | inactive | inactive | inactive | inactive | inactive | – | – | – | – | > 50 | > 50 | > 50 | > 50 | – |
| CC[C@H](C)[C@H](NC(=O)[C@H](CCCCN)NC(=O)[C@H](CCC(=O)O)NC(=O)[C@H](CCCCN)NC(=O)[C@H](CO)NC(=O)[C@H](CCCCN)NC(=O)[C@H](CCCNC(=N)N)NC(=O)[C@H](Cc1ccccc1)NC(=O)[C@H](Cc1ccccc1)NC(=O)[C@H](CC(=O)O)NC(=O)CNC(=O)[C@H](CC(C)C)NC(=O)[C@@H](N)CC(C)C)C(=O)NCC(=O)N[C@@H](CCCCN)C(=O)N[C@@H](CCC(=O)O)C(=O)N[C@@H](Cc1ccccc1)C(=O)N[C@@H](CCCCN)C(=O)N[C@@H](CCCNC(=N)N)C(=O)N[C@H](C(=O)N[C@H](C(=O)N[C@@H](CCC(N)=O)C(=O)N[C@@H](CCCNC(=N)N)C(=O)N[C@H](C(=O)N[C@@H](CCCCN)C(=O)N[C@@H](CC(=O)O)C(=O)N[C@@H](Cc1ccccc1)C(=O)N[C@@H](CC(C)C)C(=O)N[C@@H](CCCNC(=N)N)C(=O)N[C@@H](CC(N)=O)C(=O)N[C@@H](CC(C)C)C(=O)N[C@H](C(=O)N1CCC[C@H]1C(=O)N[C@@H](CCCNC(=N)N)C(=O)N[C@H](C(=O)N[C@@H](CCC(=O)O)C(=O)N[C@@H](CO)C(=O)O)[C@@H](C)O)C(C)C)[C@@H](C)CC)C(C)C)[C@@H](C)CC [CATHELICIDIN] | > 50 | > 50 | – | – | – | inactive | inactive | inactive | inactive | inactive | inactive | – | – | – | – | > 50 | 12.5 (≈ 56.2 µg/mL) | 6.25 (≈ 28.1 µg/mL) | > 50 | inhibition (Staphylococcus aureus [33]): inactive; inhibition at 3.1 µM (Staphylococcus aureus [34]): 50%; inhibition (Staphylococcus aureus [35]): inactive |
